The values that follow are results of earlier work, collected in US20260048172A1, “WOUND DRESSINGS” (ConvaTec Limited, priority 2023, published 2026).

For citric acid [citric/citrate], the “pka (third)” value (Ka = 0.0000004) is recorded as “pka = 6.4”. The “pka (second)” value (Ka = 0.0000200) is “pka = 4.7”. The “pka (first)” value (Ka = 0.0007943) was “pka = 3.1”.
